According to patent US5300672A (priority 1992, dated 1994):
In brackets after ≈: the same amount, converted by molar mass. Read-outs that look alike come from different tables or passages of the source.

Tests used:
[1] = system: Erysiphe graminis (f. sp. tritici); experiment: whole plant or invertebrate; type: in vivo; conditions: for pest or weed control at 200 ppm / pest or weed control at 100 ppm: Blumeria graminis, read-out: % Control WPM
[2] = system: Pellicularia filamentosa (f. sp. sasiki); experiment: whole plant or invertebrate; type: in vivo; conditions: 120 h; read-out: % Control RSB
[3] = system: Puccinia recondita (f. sp. tritici Races PKB and PLD); experiment: whole plant or invertebrate; type: in vivo
[4] = system: Pythium ultimum; experiment: Pythium ultimum in vitro Fungitoxicity Assay in liquid culture; type: cell-based, Pythium ultimum (ATCC 26083); conditions: mycelial dry weight, 48 h at 25° C., shaking at 60 rpm
Method: Selected compounds of Examples 1-120 were subjected also to the following in vitro fungitoxicity assay against Pythium ultimum in a liquid culture, with the results as indicated in Table 6.
Pythium ultimum Fungitoxicity Assay
A dilution series of the test compound was prepared in dimethylsulfoxide, and 0.1 ml of each dilution was added to 19.9 ml of a liquid asparagine-sucrose medium (D. C. Erwin and K. Katznelson (1971), Can. J. Microbiol. 7, 15) in 9 cm diameter petri dishes to give the desired final concentrations of test compound. Plates were inoculated with mycelial plugs, 7 mm diameter, taken from the growing edge of 48 h old cultures of Pythium ultimum, (ATCC 26083), grown on potato dextrose agar. Two replicate plates were used for each treatment. The increase in mycelial dry weight was determined after growth for 48 h at 25° C. with shaking at 60 rpm. EC50 values were calculated from dose response curves.

[5] = system: Phytophthora infestans; experiment: whole plant or invertebrate; type: in vivo; conditions: for pest or weed control at 200 ppm / pest or weed control at 100 ppm: Phytophthora infestans, in Solanum lycopersicum, 96 h; for pest or weed control at 200 ppm: read-out: % Control TLB, application rate 200 ppm; for pest or weed control at 100 ppm: read-out: % Control TLB
[6] = system: Pseudomonas fluorescens; experiment: Alternate Minimum Inhibitory Concentrations Test (Table 4), Ps.fl; type: cell-based; conditions: for MIC: Pseudomonas fluorescens, read-out: MIC Ps.fl
Procedure, shortened: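 MIC taken as lowest concentration showing no growth after 72 h incubation at 30 °C in TSB. Twofold dilution series spanned 250 down to 0.8 ppm, wells inoculated with phosphate-buffer-diluted 24 h culture.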

[7] = system: Piricularia oryzae; experiment: whole plant or invertebrate; type: in vivo; conditions: for pest or weed control at 200 ppm: read-out: % Control RB, application rate 200 ppm; for pest or weed control at 50 ppm: read-out: % Control RB, application rate 50 ppm; for pest or weed control at 100 ppm: read-out: % Control RB, application rate 100 ppm
[8] = system: Pseudomonas aerugenosa; experiment: Broth two-fold serial dilution MIC test (Table 3), Ps.ae; type: cell-based; conditions: gram negative, dilution series 500 to 4 ppm
From the text: (§1) A minimum inhibitory concentration (MIC) value is obtained using a broth, two-fold serial dilution test performed as follows: A stock solution or dispersion of the test compound, typically at a concentration of 1%, is made in a 5:3:2 solvent solution of acetone, methanol, and water. A volume of the stock solution is dispensed into culture media to give an initial starting test concentration of 500 ppm compound.
(§2) When the test is ready to be done, each vessel in the dilution series, except the first vessel, contains an equal volume of compound free broth. The first vessel contains twice the volume of broth with the starting concentration of test compound. One half of the broth from the first vessel is transferred to the second vessel. After being mixed, one half the resulting volume is removed from the second vessel and transferred to the third vessel. The entire cycle is repeated sufficiently to give a series of concentrations amounting to 500, 250, 125, 63, 31, 16, 8, and 4 ppm, respectively.
(§3) Each vessel is then inoculated with a cell suspension of the appropriate test organism. Bacteria are grown in broth and fungi on agar slants for a time and at a temperature appropriate to the species being tested. At the end of the growth period, the broth is vortexed to disperse the cells. In the case of fungi, the spores are harvested by pipetting water onto the slant and dislodging the spores with a sterile loop. The cell/spore suspension is standardized by controlling incubation time, temperature, and the volume of the diluent. The suspension is then used to inoculate the vessels containing the broth compound. The vessels are then incubated at the appropriate temperature. After the incubation, the vessels are examined for growth/no growth. The minimum inhibitory concentration (MIC) is defined as the lowest concentration of compound that results in complete inhibition of growth of the test organism.
Pseudomonas aerugenosa (Ps.ae), gram negative

[9] = system: Aspergillus niger; experiment: Broth two-fold serial dilution MIC test (Table 3), A.n; type: cell-based; conditions: dilution series 500 to 4 ppm
From the text: as §1, §2, §3

[10] = system: Aureobasidium pullulans; experiment: Broth two-fold serial dilution MIC test (Table 3), A.p; type: cell-based; conditions: dilution series 500 to 4 ppm
From the text: as §1, §2, §3
Aureobasidium pullulans (A.p)

[11] = system: Staphylococcus aureus; experiment: Broth two-fold serial dilution MIC test (Table 3), S.a; type: cell-based; conditions: gram positive, dilution series 500 to 4 ppm
From the text: as §1, §2, §3
Staphylococcus aureus (S.a), gram positive

[12] = system: Escherichia coli; experiment: Broth two-fold serial dilution MIC test (Table 3), E.c; type: cell-based; conditions: gram negative, dilution series 500 to 4 ppm
From the text: as §1, §2, §3
Escherichia coli (E.c), gram negative

[13] = system: Pseudomonas fluorescens; experiment: Broth two-fold serial dilution MIC test (Table 3), Ps.fl; type: cell-based; conditions: gram negative, dilution series 500 to 4 ppm
From the text: as §1, §2, §3
Pseudomonas fluorescens (Ps.fl), gram negative

[14] = system: Puccinia graminis (f. sp. tritici Race 15B-2); experiment: whole plant or invertebrate; type: in vivo
[15] = system: Pseudoperonospora cubensis; experiment: whole plant or invertebrate; type: in vivo
[16] = Puccinia recondita, 240 h, read-out: % Control WLR
[17] = Globisporangium ultimum, read-out: EC 50
[18] = Table 4 alternate test, 250 ppm to 0.8 ppm in TSB, 72 hours, 30° C.
[19] = Puccinia graminis, 336 h, read-out: % Control WSR
[20] = Pseudoperonospora cubensis, in Cucumis sativus, 168 h, read-out: % Control CDM

SMILES | pest or weed control at 200 ppm [1] [%] | pest or weed control at 200 ppm [2] [%] | pest or weed control at 200 ppm [3, 16] [%] | EC50 [4, 17] [µg/mL] | pest or weed control at 200 ppm [5] [%] | MIC [6, 18] [µg/mL] | pest or weed control at 200 ppm ([7]; Pyricularia oryzae) [%] | MIC [8] [µg/mL] | MIC [9] [µg/mL] | MIC [10] [µg/mL] | MIC [11] [µg/mL] | MIC [12] [µg/mL] | MIC [13] [µg/mL] | other results
CCCCCCCCNC(=O)/C=C\SC(=O)/C=C/c1ccc(C(F)(F)F)cc1 [Compound 70, N-octyl-cis-3-[(trans-3-(4-(trifluoromethyl)phenyl)propenoyl)thio]acrylamide] | 0 | 0 | 0 | 5 (≈ 12.1 µM) | 0 | > 250 | 50 | – | – | – | – | – | – | –
CCCCCCCCNC(=O)/C=C\SC(=O)c1ccc(CCCC)cc1 [Compound 115, N-octyl-cis-3-[(4-butylbenzoyl)thio]acrylamide] | – | – | – | – | 0 | – | – | > 500 | > 500 | ≥ 250 | > 500 | > 500 | > 500 | MIC ([6]; 72 h): > 250 µg/mL
CCCCCCCCNC(=O)/C=C\SC(=O)c1nccc2ccccc12 [Compound 73, N-octyl-cis-3-[(1-isoquinoline)carbonylthio]acrylamide] | 0 | 0 | 25 | 8.4 (≈ 22.7 µM) | 0 | > 250 | 0 | – | – | – | – | – | – | –
CCCCCCCCNC(=O)/C=C\SC(=O)CCC1CCCC1 [Compound 11, N-octyl-cis-3-[(3-cyclopentanepropanoyl)thio]acrylamide] | – | – | – | – | – | – | – | > 500 | 250 (≈ 736 µM) | < 4 | > 500 | > 500 | > 500 | pest or weed control at 100 ppm [1]: 0%; pest or weed control at 200 ppm [14, 19]: 90%; pest or weed control at 50 ppm [15, 20]: 85%; pest or weed control at 100 ppm [2]: 0%; pest or weed control at 100 ppm [3, 16]: 50%; pest or weed control at 100 ppm [5]: 90%; pest or weed control at 50 ppm ([7]; Pyricularia oryzae): 75%
CCCCCCCCNC(=O)/C=C\SC(=O)CC [Compound 10, N-octyl-cis-3-(propanoylthio)acrylamide] | – | – | – | – | – | – | – | > 500 | 125 (≈ 461 µM) | < 4 | < 4 | > 500 | 16 (≈ 58.9 µM) | pest or weed control at 100 ppm [1]: 0%; pest or weed control at 200 ppm [14, 19]: 90%; pest or weed control at 50 ppm [15, 20]: 85%; pest or weed control at 100 ppm [2]: 0%; pest or weed control at 100 ppm [3, 16]: 50%; pest or weed control at 100 ppm [5]: 90%; pest or weed control at 100 ppm ([7]; Pyricularia oryzae): 80%
CCCCCCCCNC(=O)/C=C\SC(=O)N(c1ccccc1)c1ccccc1 [Compound 41, N-octyl-cis-3-(diphenylaminocarbonylthio)acrylamide] | 0 | – | – | – | 0 | > 250 | 0 | > 500 | > 500 | > 500 | ≥ 500 | > 500 | > 500 | pest or weed control at 200 ppm [15, 20]: 0%; pest or weed control at 100 ppm [2]: 0%; pest or weed control at 25 ppm [3, 16]: 100%
CCCCCCCCNC(=O)/C=C\SCC(O)c1ccco1 (stereo not drawn) [Compound 42] | – | – | – | – | – | – | – | – | – | – | – | – | – | % Control WPM ([1]; in vivo): 0 % Control; % Control WSR ([14]; application rate 200 ppm): 50 % Control; % Control CDM ([15]; in vivo): 50 % Control; % Control WLR ([3]; in vivo): 0 % Control; EC50 [4]: 9 ppm; % Control TLB ([5]; application rate 200 ppm): 0 % Control; MIC Ps.fl [6, 18]: > 250 Ppm; % Control RB ([7]; in vivo): 90 % Control
CCCCCCCCNC(=O)/C=C\SC(=O)C1=CCCCC1 [Compound 9, N-octyl-cis-3-[(1-cyclohexene)carbonylthio]acrylamide] | – | – | – | – | – | – | – | > 500 | > 500 | < 4 | > 500 | > 500 | > 500 | pest or weed control at 100 ppm [1]: 0%; pest or weed control at 100 ppm [2]: 0%; pest or weed control at 100 ppm [3, 16]: 0%; pest or weed control at 100 ppm [5]: 90%; pest or weed control at 100 ppm ([7]; Pyricularia oryzae): 90%
CCCCCCCCNC(=O)/C=C\SC(=O)c1ccc2ccccc2n1 [Compound 76, N-octyl-cis-3-[(2-quinoline)carbonylthio]acrylamide] | 0 | 0 | 0 | 13.2 (≈ 35.6 µM) | 0 | > 250 | 0 | – | – | – | – | – | – | –
CCCCCCCCNC(=O)/C=C\SC(=O)c1cccn1C [Compound 61, N-octyl-cis-3-[(1-methyl-2-pyrrole)carbonylthio]acrylamide] | 0 | 0 | 0 | 59.5 (≈ 185 µM) | 0 | > 250 | 0 | – | – | – | – | – | – | –
CCCCCCCCNC(=O)/C=C\SC[C@H](N)C(=O)O [Compound 47, N-octyl-cis-3-[(2-amino-2-carboxyethane)thio]acrylamide] | – | – | – | – | – | > 250 | – | > 500 | > 500 | > 500 | > 500 | > 500 | > 500 | pest or weed control at 50 ppm [14, 19]: 90%; pest or weed control at 12 ppm [15, 20]: 70%; pest or weed control at 100 ppm [5]: 90%; pest or weed control at 50 ppm ([7]; Pyricularia oryzae): 0%
CCCCCCCCNC(=O)/C=C\SC(=O)CC(C)c1ccccc1 (stereo not drawn) [Compound 78, N-octyl-cis-3-[(3-phenylbutanoyl)thio]acrylamide] | 0 | 0 | 0 | 23.9 (≈ 66.1 µM) | 0 | > 250 | 0 | – | – | – | – | – | – | –
O=C(/C=C\SC(=O)c1ccccc1)NCCN1CCOCC1 [Compound 116, N-[2-(4-morpholine)ethyl]-cis-3-(benzoylthio)acrylamide] | 0 | – | 0 | 10.3 (≈ 32.1 µM) | 0 | > 250 | – | – | – | – | – | – | – | pest or weed control at 200 ppm [15, 20]: 0%; pest or weed control at 12 ppm ([7]; Pyricularia oryzae, read-out: % Control RB, application rate 12 ppm): 50%
CCCCCCCCNC(=O)/C=C\SC(=O)C1CCc2ccccc2C1 (stereo not drawn) [Compound 74, N-octyl-cis-3-[(1,2,3,4-tetrahydronaphth-2-oyl)thio]acrylamide] | 0 | 0 | 0 | 5 (≈ 13.4 µM) | 0 | > 250 | 0 | – | – | – | – | – | – | –
